Laboratory results as given in PubChem BioAssay (NCI).
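A five-concentration, 48-hour dose response in 96-well plates underlies each endpoint, interpolated linearly between surrounding concentrations. Abbreviation: GI50, concentration required for 50% inhibition of growth. TGI: total growth inhibition.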

Columns and labels:
Assay in all cases: NCI-60 cell line screen, 48 h
[1] = system: M14 melanoma
[2] = system: SK-MEL-28 melanoma
[3] = system: RXF 393 renal
[4] = system: UO-31 renal
[5] = system: SF-539 CNS
[6] = system: NCI/ADR-RES ovarian
[7] = system: NCI-H460 lung
[8] = system: MDA-MB-231 breast

Structure (SMILES): NS(=O)(=O)c1ccc(C2C3=C(CCCC3=O)OC3=C2C(=O)c2ccccc2C3=O)cc1 (centres undefined)
- GI50 [1]: 0.455 µM
- TGI [1]: 1.68 µM
- GI50 [2]: 1.42 µM
- TGI [2]: 2.92 µM
- GI50 [3]: 1.45 µM
- TGI [3]: 2.84 µM
- GI50 [4]: 1.55 µM
- TGI [4]: 2.92 µM
- GI50 [5]: 0.277 µM
- TGI [5]: 0.761 µM
- GI50 [6]: 2.43 µM
- TGI [6]: 14.6 µM
- GI50 [7]: 0.589 µM
- TGI [7]: 2.12 µM
- GI50 [8]: 0.318 µM
- TGI [8]: 0.938 µM

Structure (SMILES): COc1cc2c(c(OC)c1OC)-c1ccc(NNC(=S)N(Cc3cccc(C[N+](Cc4cccc(CNC56CC7CC(CC(C7)C5)C6)c4)(Cc4cccc(CNC56CC7CC(CC(C7)C5)C6)c4)Cc4cccc(CN(C(=S)NNc5ccc6c(cc5=O)[C@@H](NC(C)=O)CCc5cc(OC)c(OC)c(OC)c5-6)C56CC7CC(CC(C7)C5)C6)c4)c3)C34CC5CC(CC(C5)C3)C4)c(=O)cc1[C@@H](NC(C)=O)CC2 (some centres undefined)
- GI50 [1]: 0.822 µM
- TGI [1]: 2.26 µM
- GI50 [2]: 1.02 µM
- TGI [2]: 4.07 µM
- GI50 [3]: 1.7 µM
- TGI [3]: 6.65 µM
- GI50 [4]: 2.16 µM
- TGI [4]: 7.2 µM
- GI50 [5]: 1.14 µM
- TGI [5]: 4.3 µM
- GI50 [6]: 5.43 µM
- TGI [6]: 12.5 µM
- GI50 [7]: 1.22 µM
- TGI [7]: 3.79 µM
- GI50 [8]: 0.994 µM
- TGI [8]: 2.99 µM

Structure (SMILES): c1cc(C2CCCCC2)ccc1OCCCCCCN1CCNCC1
- GI50 [1]: 1.98 µM
- TGI [1]: 4.33 µM
- GI50 [2]: 2.96 µM
- TGI [2]: 8.76 µM
- GI50 [4]: 1.62 µM
- TGI [4]: 3.38 µM
- GI50 [5]: 1.78 µM
- TGI [5]: 3.25 µM
- GI50 [6]: 2.36 µM
- TGI [6]: 5.14 µM
- GI50 [7]: 1.84 µM
- TGI [7]: 3.43 µM
- GI50 [8]: 1.61 µM
- TGI [8]: 3.29 µM

Structure (SMILES): ON(CCc1ccncc1)Cc1ccccc1
- TGI [1]: > 100 µM
- TGI [2]: > 100 µM
- TGI [3]: > 100 µM
- TGI [4]: > 100 µM
- TGI [5]: > 100 µM
- TGI [6]: > 100 µM

Structure (SMILES): O=CN1N=C(c2ccc(Nc3ccnc4cc(Cl)ccc34)cc2)CC1c1ccccc1 (centres undefined)
- GI50 [1]: 4.12 µM
- TGI [1]: 31 µM
- GI50 [2]: 8.35 µM
- TGI [2]: 77.7 µM
- GI50 [3]: 2.2 µM
- TGI [3]: 21.6 µM
- GI50 [4]: 3.81 µM
- TGI [4]: > 100 µM
- GI50 [5]: 4.57 µM
- TGI [5]: 18.7 µM
- GI50 [6]: 2.69 µM
- TGI [6]: 59.8 µM
- GI50 [7]: 3.96 µM
- TGI [7]: > 100 µM
- GI50 [8]: 2.43 µM
- TGI [8]: 13.7 µM

Structure (SMILES): Cc1[nH]c(C(=O)Nc2ccc(C(=O)N3CCNCC3)cc2OC(C)C)c(Cl)c1Cl
- GI50 [1]: 1.94 µM
- TGI [1]: 3.57 µM
- GI50 [2]: 1.78 µM
- TGI [2]: 3.24 µM
- GI50 [3]: 1.59 µM
- TGI [3]: 3.25 µM
- GI50 [4]: 1.44 µM
- TGI [4]: 2.85 µM
- GI50 [5]: 1.73 µM
- TGI [5]: 3.19 µM
- GI50 [6]: 2.25 µM
- TGI [6]: 5.58 µM
- GI50 [7]: 1.88 µM
- TGI [7]: 3.44 µM
- GI50 [8]: 1.67 µM
- TGI [8]: 3.33 µM

Structure (SMILES): CNc1nc(C)c(-c2nc(Nc3cccc(S(N)(=O)=O)c3)ncc2F)s1
- GI50 [1]: 0.0305 µM
- TGI [1]: 1.58 µM
- GI50 [2]: 0.0319 µM
- TGI [2]: 0.278 µM
- GI50 [3]: 0.0176 µM
- TGI [3]: 0.0301 µM
- GI50 [4]: 0.035 µM
- TGI [4]: 0.505 µM
- GI50 [5]: 0.0233 µM
- TGI [5]: 0.0664 µM
- GI50 [6]: 0.0886 µM
- TGI [6]: 9.17 µM
- GI50 [7]: 0.0776 µM
- TGI [7]: 3.89 µM
- GI50 [8]: 0.0416 µM
- TGI [8]: 5.98 µM

Structure (SMILES): COc1ccc(C2=CC(c3cc(OC)c(OC)c(OC)c3)NC(=O)N2)cc1OC (centres undefined)
- GI50 [1]: 3.59 µM
- TGI [1]: 11.5 µM
- GI50 [2]: 6.97 µM
- TGI [2]: 20.5 µM
- GI50 [3]: 3.04 µM
- TGI [3]: 12.7 µM
- GI50 [4]: 2.54 µM
- TGI [4]: 12.8 µM
- GI50 [5]: 2.28 µM
- TGI [5]: 5.94 µM
- GI50 [6]: 3.02 µM
- TGI [6]: > 100 µM
- GI50 [7]: 1.92 µM
- TGI [7]: 5 µM
- GI50 [8]: 2.84 µM
- TGI [8]: 8.04 µM

Structure (SMILES): C=C1C(=O)O[C@H]2[C@H]1CC/C(CNS(=O)(=O)c1ccc3ccccc3c1)=C\CC[C@@]1(C)O[C@@H]21
- GI50 [1]: 1.57 µM
- TGI [1]: 3.49 µM
- GI50 [2]: 1.57 µM
- TGI [2]: 3.57 µM
- GI50 [3]: 1.3 µM
- TGI [3]: 2.65 µM
- GI50 [4]: 1.34 µM
- TGI [4]: 2.78 µM
- GI50 [5]: 1.73 µM
- TGI [5]: 3.56 µM
- GI50 [6]: 7.11 µM
- TGI [6]: 31.7 µM
- GI50 [7]: 8.14 µM
- TGI [7]: 24.3 µM
- GI50 [8]: 2.15 µM
- TGI [8]: 5.36 µM

Structure (SMILES): C=C1C(=O)O[C@H]2[C@H]1CC/C(CNC(=O)/C=C/c1cccc(OC)c1)=C\CC[C@@]1(C)O[C@@H]21
- GI50 [1]: 1.42 µM
- TGI [1]: 3.11 µM
- GI50 [2]: 1.74 µM
- TGI [2]: 4.23 µM
- GI50 [3]: 1.05 µM
- TGI [3]: 2.33 µM
- GI50 [4]: 1.29 µM
- TGI [4]: 2.61 µM
- GI50 [5]: 1.27 µM
- TGI [5]: 2.98 µM
- GI50 [6]: 3.79 µM
- TGI [6]: 17.8 µM
- GI50 [7]: 2.51 µM
- TGI [7]: 7.05 µM
- GI50 [8]: 1.79 µM
- TGI [8]: 4.07 µM

Structure (SMILES): Cc1ccc2c[c]1[Hg][CH2]COS2(=O)=O
- GI50 [1]: 17.4 µM
- TGI [1]: 31.2 µM
- GI50 [2]: 16.4 µM
- TGI [2]: 29.9 µM
- GI50 [3]: 15.9 µM
- TGI [3]: 29.3 µM
- GI50 [4]: 17.3 µM
- TGI [4]: 31 µM
- GI50 [5]: 18 µM
- TGI [5]: 32.5 µM
- GI50 [6]: 25 µM
- TGI [6]: 62.1 µM
- GI50 [7]: > 100 µM
- TGI [7]: > 100 µM
- GI50 [8]: 17.5 µM
- TGI [8]: 32 µM

Structure (SMILES): COc1cc([C@@H]2c3cc4c(cc3C(Br)[C@H]3COC(=O)[C@H]23)OCO4)cc(OC)c1OC (some centres undefined)
- GI50 [1]: 0.22 µM
- GI50 [2]: 53.5 µM
- TGI [2]: > 100 µM
- GI50 [3]: 0.0815 µM
- TGI [3]: 6.48 µM
- GI50 [4]: 0.418 µM
- TGI [4]: > 100 µM
- GI50 [5]: 0.185 µM
- TGI [5]: 0.598 µM
- GI50 [7]: 0.204 µM
- TGI [7]: 0.547 µM
- GI50 [8]: 0.296 µM

Structure (SMILES): Cc1cc(=O)c2cc(N=Cc3ccc([N+](=O)[O-])o3)ccc2o1
- TGI [1]: > 100 µM
- TGI [2]: > 100 µM
- TGI [4]: > 100 µM
- TGI [5]: > 100 µM
- TGI [6]: > 100 µM
- TGI [7]: > 100 µM
- TGI [8]: > 100 µM

Structure (SMILES): CN(C)C(=S)NN=C(c1ccccn1)c1ccccn1
- GI50 [1]: < 0.0147 µM
- TGI [1]: 0.349 µM
- GI50 [2]: 0.131 µM
- TGI [2]: 18.2 µM
- GI50 [3]: 0.138 µM
- TGI [3]: 13.8 µM
- GI50 [4]: < 0.0184 µM
- TGI [4]: 14.1 µM
- GI50 [5]: 0.0425 µM
- TGI [5]: 4.64 µM
- GI50 [6]: < 0.0208 µM
- TGI [6]: 4.98 µM
- GI50 [7]: < 0.025 µM
- GI50 [8]: 0.0412 µM
- TGI [8]: 27.8 µM

Structure (SMILES): COC(=O)Nc1nc2ccc(Oc3ccc(NC(=O)Nc4cccc(Br)c4)cc3)cc2[nH]1
- GI50 [1]: 2.12 µM
- TGI [1]: > 17.8 µM
- GI50 [2]: 2.53 µM
- TGI [2]: 7.7 µM
- GI50 [3]: 1.92 µM
- TGI [3]: 11.9 µM
- GI50 [4]: > 16.6 µM
- TGI [4]: > 25 µM
- GI50 [5]: 2.04 µM
- TGI [5]: > 20.8 µM
- GI50 [6]: > 6.8 µM
- TGI [6]: > 25 µM
- GI50 [7]: 1.27 µM
- TGI [7]: > 13.5 µM
- GI50 [8]: 5.74 µM
- TGI [8]: > 25 µM
